Measurements reported in paper PMC5794198, “Inhibitors of Trypanosoma cruzi Sir2 related protein 1 as potential drugs against Chagas disease” (PLoS Neglected Tropical Diseases, 2018).
“Also recorded” adds a separate entry of the source. Like-named read-outs stand apart in the source and are kept apart here.

What was measured:
[1] = system: T. cruzi amastigotes; test: High-content screening assay on intracellular T. cruzi amastigotes; type: cell-based, Trypanosoma cruzi; settings: for EC50: Y strain in C2C12 host cells, 72 h, read-out: Anti-T. cruzi Activity Amastigotes (EC50 ± SD)
Description: (§1) For the evaluation of the activity against T. cruzi amastigotes, high-content screening (HCS) was designed. In summary, 100 μL of host C2C12 cells (ATCC) were seeded in clear bottom black 96-well plates at a density of 2.5 x 10^4 cells/mL (2.5 × 10^3 cells/well). After 24 hrs, 50 μL of Y strain tissue culture-derived trypomastigotes were used to infect the host cells at a density of 7.5 x 10^5/mL (3.75 x 10^4 parasites/well). The parasites were allowed to infect for a 24 hr period, after which compounds were added in a volume of 50 μL. […] After 72 hrs of compound incubation, the wells were fixed with 4% paraformaldehyde for 15 to 30 mins. The plates were then washed once with deionized water and stained with a solution of DAPI (3 μM) for 1 hour. Plates were imaged in an INCell 2000 (GE Healthcare) high-content analyser by taking 16 pictures per well at 20 X objective amplification. Images were analysed with INCell Developer software (GE Healthcare) using the segmentation of host cell nuclei and parasite kinetoplast DNA. The measurement output used was the average number of parasites per cell calculated by the ratio of host cell nuclei/parasite kinetoplast DNA.
In this assay, the compounds are incubated for 72 hours with cells previously infected with wild-type trypomastigotes for 24 hours. The readout was done by comparing the average number of amastigotes per cell that developed by the end of the incubation period. The quality of the assay was statistically evaluated by the calculation of the z-factor [75], that represents the reliability of the assay in distinguishing positive controls confidently from negative controls. Varying from 0 to 1, z-factor values higher than 0.5 are considered acceptable for drug screening. The z-factor obtained was 0.68, validating the use of the assay (S3B Fig).

[2] = system: C2C12 cells; test: C2C12 host cell cytotoxicity (cell ratio) in HCS assay; type: cell-based, Mouse; settings: for Selectivity Index: CC50 cell line (C2C12)/EC50 T. cruzi; for CC50: cell ratio, 72 h, read-out: C2C12 Cytotoxicity (CC50 ± SD)
Description: as §1, with “After 24 hrs, 50 μL of Y strain tissue culture-derived trypomastigotes were used to infect the host cells at a density of 7.5 x 10^5/mL (3.75 x 10^4 parasites/well).” left out

[3] = as above; type: cell-based, Mouse; settings: mouse, cell ratio, 72 h; read-out: C2C12 Cytotoxicity (CC50 ± SD)
Description: as §1, with “After 24 hrs, 50 μL of Y strain tissue culture-derived trypomastigotes were used to infect the host cells at a density of 7.5 x 10^5/mL (3.75 x 10^4 parasites/well).” left out

[4] = biological target: T1, human SIRT1 (Homo sapiens, UniProt Q96EB6); test: hSIRT1 deacetylase inhibition (CycLex kit); type: biochemical; settings: 10 µM, n=2, N.I. = no inhibition; for inhibition at 10 µM: read-out: hSIRT1 Inhibition at 10 µM (% ± SD)
T1 sequence (Q96EB6 1-747): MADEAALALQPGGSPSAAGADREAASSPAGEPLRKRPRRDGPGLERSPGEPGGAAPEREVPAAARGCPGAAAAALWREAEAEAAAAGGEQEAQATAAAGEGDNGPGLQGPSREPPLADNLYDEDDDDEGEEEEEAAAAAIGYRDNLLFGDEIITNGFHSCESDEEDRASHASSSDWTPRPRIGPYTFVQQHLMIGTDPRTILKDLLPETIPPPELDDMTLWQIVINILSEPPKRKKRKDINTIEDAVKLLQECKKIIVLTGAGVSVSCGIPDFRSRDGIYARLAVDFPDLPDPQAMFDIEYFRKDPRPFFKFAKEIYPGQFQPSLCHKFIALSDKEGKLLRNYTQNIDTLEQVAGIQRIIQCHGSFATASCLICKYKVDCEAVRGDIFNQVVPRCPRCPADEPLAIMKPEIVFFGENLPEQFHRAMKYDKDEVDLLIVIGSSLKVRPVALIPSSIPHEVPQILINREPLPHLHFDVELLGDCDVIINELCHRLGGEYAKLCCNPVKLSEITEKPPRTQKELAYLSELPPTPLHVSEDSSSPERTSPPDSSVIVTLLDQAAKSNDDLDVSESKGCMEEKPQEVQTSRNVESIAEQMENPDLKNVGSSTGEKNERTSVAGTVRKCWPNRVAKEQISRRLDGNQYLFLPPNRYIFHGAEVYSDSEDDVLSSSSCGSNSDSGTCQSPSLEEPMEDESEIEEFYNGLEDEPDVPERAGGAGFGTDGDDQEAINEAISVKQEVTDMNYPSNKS

[5] = biological target: TcSir2rp1 (Trypanosoma cruzi, UniProt Q4DVL9); test: TcSir2rp1 NAD+-dependent deacetylase fluorimetric assay (CycLex kit); type: biochemical; settings: for Inhibition of NAD+-dependent deacetylase activity of TcSir2rp1 / inhibition at 10 µM: single dose 10 μM, 200 μM NAD+, 10 μM peptide
Description: The deacetylase activity was measured using the commercial SIRT1/Sir2 Deacetylase Fluorometric Assay Kit (CycLex,Japan) according to the manufacturer’s recommendations. Briefly, fluorescence emission after digestion of deacetylated substrates by a lysine specific endopeptidase was measured in a fluorometric plate reader (Synergy HT, BioTek) with excitation and emission wavelengths set at 340 and 440 nm, respectively, every 30 seconds for 1 hour. The slope of the linear part of the reaction was calculated and used as readout of enzyme activity. […]
(§2) A variety of the bisnaphthalimidopropyl (BNIPs) derivatives, as well as the newly synthetized derivatives were evaluated as potential TcSir2rp1 inhibitors. The enzymatic reactions were performed using a commercially available CycLex SIRT1/Sir2 deacetylase fluorimetric kit (CycLex Co. Ltd., Nagano, Japan) in the absence and presence of the various inhibitors, 200 μM NAD^+ and 10 μM of peptide substrate as previously described.
as §2, with “µM” for “μM”

[6] = Solubility; type: physicochemical; settings: limits the concentration tested
[7] = system: T. cruzi epimastigotes overexpressing TcSir2rp1 (OE) with the pTcINDEX; test: microbe, parasite or virus in culture; type: cell-based; settings: Trypanosoma cruzi, read-out: EC50 against T. cruzi epimastigotes OE
Description: For the generation of transgenic cell lines, 15 μg of the constructs were digested overnight (SpeI for the pTcINDEX construct; NotI for the knockout constructs), precipitated with sodium acetate / ethanol, and introduced into 1.5 x 10^7 epimastigote cells in the logarithmic phase of growth via transfection using an AMAXA Nucleofector II device (program V-33) with the Human T-cell nucleofector kit (Lonza). Parasites were suspended in fresh growth medium and incubated for 24-hrs to allow for the expression of drug selectable markers, prior to the addition of appropriate antibiotic (Blasticidin S (Thermo Fisher Scientific; 10 μg/mL); Hygromycin B (Formedium; 100 μg/mL); and Puromycin (Calbiochem; 5 μg/mL). Cells were then incubated for a further four- to six-weeks to allow for the selection of transgenic parasites and then genetically verified by PCR using ORF and drug selection primers.
The TcSir2rp1 open reading frame (TriTryp accession number TcCLB.508207.150) was amplified from CL-Brener genomic DNA using KOD polymerase (Novagen). The resulting PCR product encoding the full-length ORF was cloned directly into the T. cruzi expression vector, pTcINDEX [49], using NotI and BamHI restriction sites.
T. cruzi epimastigotes were seeded at 1.25 x 10^6 cells/mL in a 96-well plate in the presence of varying concentrations of test compounds. Following a 64-hour incubation, 15 μL of a resazurin solution (Sigma-Aldrich; 1.1 mg/mL in PBS). Following an additional 6-hr incubation, cell viability was determined by measuring the fluorescence of each culture with a BioTek FLX800 Fluorescence Microplate Reader (excitation and emission wavelengths of 540/535 nm and 590/610 nm, respectively) and associated Gen5 Reader Control 2.0 software. EC50 values were determined by nonlinear regression to a sigmoidal dose-response curve using GraFit software (Version 5.0, Erithacus Software). Each assay was performed in at least triplicate in parallel to the known trypanocidal agent nifurtimox.

Chain of TcSir2rp1 (Q4DVL9 entry or part of it): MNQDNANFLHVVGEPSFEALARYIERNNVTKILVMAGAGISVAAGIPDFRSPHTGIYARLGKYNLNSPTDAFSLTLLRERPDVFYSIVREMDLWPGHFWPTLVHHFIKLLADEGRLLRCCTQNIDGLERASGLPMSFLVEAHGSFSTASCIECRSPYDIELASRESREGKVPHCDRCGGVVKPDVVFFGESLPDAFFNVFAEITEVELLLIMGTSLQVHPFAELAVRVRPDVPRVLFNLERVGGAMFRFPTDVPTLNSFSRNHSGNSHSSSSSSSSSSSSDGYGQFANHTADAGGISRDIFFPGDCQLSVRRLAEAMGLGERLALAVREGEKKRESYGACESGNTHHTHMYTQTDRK

Compound	EC50 ([1]; Trypanosoma cruzi, C2C12, 72 h)	Selectivity Index [2]	CC50 at 72 h [3]	hSIRT1 Inhibition at 10 µM (% ± SD) [4]	inhibition at 10 µM [4]	other results
O=C1c2cccc3cccc(c23)C(=O)N1CCCNCCCCNCCCN1C(=O)c2cccc3cccc(c23)C1=O [Compound 1]	1710 ± 230 nM	1.7	2910 ± 940 nM			
O=C1c2cccc3cccc(c23)C(=O)N1CCCNC1CCC(NCCCN2C(=O)c3cccc4cccc(c34)C2=O)CC1 (centres unmarked) [Compound 1a]		1.4		1 ± 1%		EC50 [1]: 6090 ± 140 nM; CC50 [2]: 8740 ± 1140 nM
O=C1c2cccc3cccc(c23)C(=O)N1CCCNC1CCC(NCCCN2C(=O)c3cccc4cccc(c34)C2=O)CC1 (centres unmarked) [Compound 1b]		> 3.2		3 ± 4%		EC50 [1]: 780 ± 120 nM; CC50 [2]: > 2500 nM
O=C1c2cccc3cccc(c23)C(=O)N1CCCNc1ccc(NCCCN2C(=O)c3cccc4cccc(c34)C2=O)cc1 [Compound 1c]				N.I.		
O=C1c2cccc3cccc(c23)C(=O)N1CCCNCCCCCCCCNCCCN1C(=O)c2cccc3cccc(c23)C1=O [Compound 5]						Activity against amastigotes (primary screening) ([1]; single dose screening): very little if any activity; Inhibition of NAD+-dependent deacetylase activity of TcSir2rp1 [5]: not active; also recorded: very little if any activity
O=C1c2cccc3cccc(c23)C(=O)N1CCCN1CCC(CCCC2CCN(CCCN3C(=O)c4cccc5cccc(c45)C3=O)CC2)CC1 [Compound 6a]	1450 ± 300 nM	2.0	2880 ± 120 nM		3 ± 4%	
O=C1c2cccc3cccc(c23)C(=O)N1CCCNC1CCC(CC2CCC(NCCCN3C(=O)c4cccc5cccc(c45)C3=O)CC2)CC1 (centres unmarked) [Compound 6b]					44 ± 8%	inhibition at 10 µM [5]: 8 ± 5%
O=C1c2cccc3cccc(c23)C(=O)N1CCCNc1ccc(Cc2ccc(NCCCN3C(=O)c4cccc5cccc(c45)C3=O)cc2)cc1 [Compound 6c]					8 ± 1%	Solubility in assay (qualitative) [6]: poor solubility
O=C1c2cccc3cccc(c23)C(=O)N1CCCNCCCN1CCN(CCCNCCCN2C(=O)c3cccc4cccc(c34)C2=O)CC1 [Compound 7a]	13600 ± 2900 nM	1.4	19300 ± 5640 nM	N.I.		
O=C1c2cccc3cccc(c23)C(=O)N1CCCNCCCCCCCCCCCCNCCCN1C(=O)c2cccc3cccc(c23)C1=O [Compound 8]	1430 ± 100 nM	1.3	1910 ± 60 nM			inhibition at 50 µM [5]: 31 ± 9%; Inhibition of NAD+-dependent deacetylase activity of TcSir2rp1 [5]: statistically significant inhibition
O=C1c2cccc3cccc(c23)C(=O)N1CCCNCCOCCOCCNCCCN1C(=O)c2cccc3cccc(c23)C1=O [Compound 9a]	3430 ± 570 nM	2.1	7370 ± 650 nM		3 ± 4%	inhibition at 50 µM [5]: 29 ± 4%; Inhibition of NAD+-dependent deacetylase activity of TcSir2rp1 [5]: statistically significant inhibition; inhibition at 10 µM [5]: 28 ± 13%
O=C1c2cccc3cccc(c23)C(=O)N1CCCNCCCNCCCCNCCCNCCCN1C(=O)c2cccc3cccc(c23)C1=O [Compound 10]						Solubility in assay (qualitative) [6]: poor solubility
C[N+]1(CCCN2C(=O)c3cccc4cccc(c34)C2=O)CCN(CCCN2C(=O)c3cccc4cccc(c34)C2=O)CC1 [Compound 12]	28700 ± 4090 nM	> 1.7	> 50000 nM	N.I.		
O=C1c2cccc3c(Cl)ccc(c23)C(=O)N1CCCN1CCN(CCCN2C(=O)c3cccc4c(Cl)ccc(c34)C2=O)CC1 [Compound 13]	590 ± 230 nM		> 2500 nM		15 ± 4%	inhibition at 20 µM [5]: 48 ± 6%; Inhibition of T. cruzi enzyme relative to hSIRT1, fold higher ([5]; both at 10 μM): at least 3 fold; Inhibition of NAD+-dependent deacetylase activity of TcSir2rp1 [5]: statistically significant inhibition; inhibition at 10 µM [5]: 50 ± 8%; Solubility in assay (qualitative) [6]: low solubility
CC1CS(=O)(=O)CCN1/N=C/c1ccc([N+](=O)[O-])o1 (centres unmarked) [Nifurtimox, nifurtimox, reference compound]						EC50 [7]: 2240 ± 140 nM
CC(/C=C/C(=O)NO)=C\[C@@H](C)C(=O)c1ccc(N(C)C)cc1 [trichostatin A, reference compound]						TcSir2rp1 deacetylase activity still displayed ([5]; inhibitor at 1 μM): 77 ± 8%
